{"source": "patent US10517863B2", "about": "“Trilobine and its natural analogs for use as a drug” (PIERRE FABRE MEDICAMENT, priority 2015, dated 2019)", "test_system": "P15 promoter in leukaemia KG1 cells", "assay": "P15 (CDKN2B) promoter demethylation, bisulfite PCR cloning-sequencing", "type": "cell-based, human", "conditions": "after 3 days, at 0.32 μM", "experimental": "Cancer cell lines (colon HCT116 or leukaemia KG1) were treated with the compounds as indicated in the Data Tables and then analysed as following.\nDNA was isolated from cultured cells using the DNeasy Blood and Tissue Kit according to the manufacturer's specifications (Qiagen). DNA bisulphite conversion was performed on 2 μg of DNA using the EZ DNA Methylation-Gold Kit according to the manufacturer's specifications (Zymo Research) and bisulfited DNA was eluted with 10 μL of water. Two different techniques were used to analyse the DNA methylation profile after bisulfite conversion of genomic DNA: (A) cloning and sequencing or (B) COBRA. The primers for each promoter are specified in the Table 3.\nSequencing of bisulfite-treated DNA allowing resolution of the methylation state of every cytosine in the target sequence, at single molecule resolution, is considered as the “gold standard” for DNA methylation analysis.\nBisulfite-specific primers with a minimum length of 18 bp were designed using Primer 3 program. […]\nPCR amplicons were cloned with the StrataClone Ultra Blunt PCR Cloning Kit (Agilent Technologies), according to the manufacturers' instructions and up to 24 clones were picked for sequencing. […] Electrophoregram files and methylation signals at a given CpG site were quantified using the BISMA software as described in the literature (Rohde et al. BMC Bioinformatics 2010, 11, 230)."}
{"smiles": "COc1ccc2cc1Oc1ccc(cc1)C[C@@H]1NCCc3cc(OC)c4c(c31)Oc1cc3c(cc1O4)CCN(C)[C@H]3C2", "note": "[Compound 1, Trilobine]", "values": [{"measurement": "Demethylation (COBRA) P15/KG1", "result": "−25", "unit": "% after 3 days"}]}
